# Assay results taken from the supplement of paper PMC10307832.
# What was measured:
# Test in all cases: relative viability (nuclei count vs DMSO), 5 days (fraction); higher = more cells survive
# [1] = compound: CN(NC(=O)CC(=O)NN(C)C(=S)c1ccccc1)C(=S)c1ccccc1 [Elesclomol] + CC(=O)Nc1cccc(-n2c(=O)n(C3CC3)c(=O)c3c(Nc4ccc(I)cc4F)n(C)c(=O)c(C)c32)c1 [Trametinib] (partner 0.02 µM)
# Outline: (§1)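 For relative viability, nuclei counts in treated wells were divided by those in vehicle wells. Lung cancer cell lines had been pin-tool dosed in 1536-well plates the day after seeding and cultured for 5 days, then fixed and stained in one step (final 0.05% Triton X-100, 1% formaldehyde, 1 ug/ml Hoechst) and imaged at 4×. Doses were one drug alone or a fixed anchor-drug dose plus five library-drug doses (not always all listed) in √10 steps, and values are duplicate-plate medians.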
# [2] = compound: CN(NC(=O)CC(=O)NN(C)C(=S)c1ccccc1)C(=S)c1ccccc1 [Elesclomol] + O=C(c1cc(Cc2n[nH]c(=O)c3ccccc23)ccc1F)N1CCN(C(=O)C2CC2)CC1 [Olaparib] (partner 8 µM)
# Outline: as §1
# [3] = compound: CN(NC(=O)CC(=O)NN(C)C(=S)c1ccccc1)C(=S)c1ccccc1 [Elesclomol] + Cc1cc(Nc2cc(N3CCN(C)CC3)nc(Sc3ccc(NC(=O)C4CC4)cc3)n2)n[nH]1 [Tozasertib] (partner 0.1 µM)
# Outline: as §1
# [4] = compound: CN(NC(=O)CC(=O)NN(C)C(=S)c1ccccc1)C(=S)c1ccccc1 [Elesclomol] + CC1(C)CCC(c2ccc(Cl)cc2)=C(CN2CCN(c3ccc(C(=O)NS(=O)(=O)c4ccc(N[C@H](CCN5CCOCC5)CSc5ccccc5)c(S(=O)(=O)C(F)(F)F)c4)cc3)CC2)C1 [Navitoclax] (partner 0.5 µM)
# Outline: as §1
# [5] = compound: CN(NC(=O)CC(=O)NN(C)C(=S)c1ccccc1)C(=S)c1ccccc1 [Elesclomol] + COc1cccc2cc(-c3nc([C@H]4CC[C@H](C(=O)O)CC4)n4ncnc(N)c34)[nH]c12 [OSI-027] (partner 0.5 µM)
# Outline: as §1
Cell Line,relative viability ([1]; first compound 0.003162 µM),relative viability ([1]; first compound 0.01 µM),relative viability ([1]; first compound 0.03162 µM),relative viability ([1]; first compound 0.1 µM),relative viability ([2]; first compound 0.003162 µM),relative viability ([2]; first compound 0.01 µM),relative viability ([2]; first compound 0.03162 µM),relative viability ([2]; first compound 0.1 µM),relative viability ([3]; first compound 0.003162 µM),relative viability ([3]; first compound 0.01 µM),relative viability ([3]; first compound 0.03162 µM),relative viability ([3]; first compound 0.1 µM),relative viability ([4]; first compound 0.003162 µM),relative viability ([4]; first compound 0.01 µM),relative viability ([4]; first compound 0.03162 µM),relative viability ([4]; first compound 0.1 µM),relative viability ([5]; first compound 0.003162 µM),relative viability ([5]; first compound 0.01 µM),relative viability ([5]; first compound 0.03162 µM),relative viability ([5]; first compound 0.1 µM)
NCI-H3122,0.23,0.21,0.216,0.0967,0.606,0.665,0.563,0.105,0.329,0.118,0.0927,0.0898,1.05,1.03,1.01,0.247,0.955,0.198,0.144,0.0943
PC-3 [JPC-3],0.714,0.473,0.435,0.5,1.13,0.968,0.728,0.627,0.913,0.783,0.941,0.569,0.866,0.682,0.794,0.7,0.734,0.662,0.781,0.428
PC-14,0.206,0.0608,0.0204,0.0164,0.287,0.0846,0.0176,0.0205,0.502,0.0652,0.0256,0.0175,0.977,0.719,0.0635,0.0562,0.19,0.0399,0.0104,0.0138
RERF-LC-KJ,0.753,0.536,0.572,0.28,0.613,0.473,0.326,0.323,0.264,0.239,0.208,0.116,0.47,0.288,0.293,0.191,0.406,0.372,0.242,0.188
SK-LU-1,0.517,0.316,0.287,0.338,0.468,0.373,0.378,0.249,0.336,0.271,0.238,0.15,1.08,0.704,0.167,0.172,0.319,0.271,0.211,0.0858
SK-MES-1,0.584,0.635,0.501,0.415,0.713,0.656,0.339,0.231,0.842,0.791,0.318,0.479,1.28,0.97,1.03,0.385,0.695,0.196,0.266,0.395
SW 1573,0.192,0.115,0.0701,0.0281,0.201,0.146,0.0695,0.0085,0.133,0.119,0.0792,0.0199,0.918,0.102,0.0652,0.0513,0.167,0.107,0.0847,0.0105
UMC-11,0.703,0.653,0.407,0.369,0.54,0.338,0.279,0.266,0.205,0.199,0.185,0.168,0.277,0.311,0.22,0.143,0.482,0.428,0.396,0.336
